Experimental data reported in PMC12514245, “Impaired migration and lung invasion of human melanoma by a novel small molecule targeting the transmembrane domain of death receptor p75^NTR” (EMBO Molecular Medicine, 2025).
Several values for one entry are separate records, joined by “and”; a condition that tells them apart may be missing. Equal entries are not always repeated. Entries after “also recorded” stand apart in the source; their conditions may differ.

Key:
[1] = test system: A875 melanoma cells (NT); test: Cleaved PARP western blot (apoptosis), A875 NT; format: cell-based, human; conditions: Q-VD-pOH 5 µM; Div17E5 10 µM
Method: One of the main biological readouts of p75^NTR activity in response to neurotrophins is the induction of caspase-mediated apoptotic cell death (Underwood and Coulson, [2008]; Friedman, [2010]; Ibáñez and Simi, [2012]).
COS7, A875 and WM115 cell lines were cultured under standard conditions in DMEM supplemented with 10% fetal calf serum, 100 units/ml penicillin, […] streptomycin, and 2.5 mM glutamine. All cells were authenticated and tested for mycoplasma contamination. A875-NT (control) and A875 shp75 (knockdown) cell lines were described previously (Goh et al, [2018]).

[2] = test system: A875 NT cells; test: Boyden chamber chemotaxis/invasion assay, A875 NT; format: cell-based, human; conditions: 5μM Q_VD_pOH; for Fold change (invading cells), Mean: N=3
Method: For Boyden chamber assay, Corning® BioCoat™ Matrigel® Invasion Chambers 8.0 µm PET Membrane were used (cat. no. 354480). A875 NT or WM115 cells were serum-starved for 16 h and then seeded at 60,000 cells per well in serum-free media under different conditions, including DMSO (vehicle) or small molecules Div17E5 or Np75-4A22 at different concentrations to the top chamber of the Matrigel-coated trans-well chamber. The pan-caspase inhibitor Q_VD_poH (at 5 µM) was also introduced in the top chamber in some experiments. Two different chemoattractants, NGF (at 50 ng/ml or 100 ng/ml as indicated) or 10% FBS were added to the bottom chamber. Assays were carried out for 8 h after which filters were fixed in 4% PFA and stained with DAPI. Cells that had remained on the top of the filter were gently scrapped away with a cotton tip. The filter lower side was imaged on an inverted fluorescence microscope and counted using ImageJ software (NIH).

[3] = test system: A875 shp75 cells; test: Wound healing cell motility assay, A875 shp75; format: cell-based, human; conditions: 5μM Q_VD_poH; for Wound area, Mean: N=3
Method: (§1) For wound healing assay, cells were grown until confluency and subjected to a wound across the cell mono-layer. Cells were then incubated with serum-free media either with DMSO or a small molecule (with or without 5 µM Q_VD_poH) and imaged at specific time-points. Cell migration is reflected as fold change in wound area over time.

[4] = test system: A875 NT cells; test: Wound healing cell motility assay, A875 NT; format: cell-based, human; conditions: for Wound area, Mean / Wound area, n1-n3: 5μM Q_VD_poH; for Wound area, Mean: N=3
Method: as §1

[5] = test system: A875-NT melanoma xenograft; test: Melanoma lung invasion assay, A875-NT, delayed treatment 3 weeks after cell injection; format: in vivo, SCID mice; conditions: A875-NT, group average
Method: (§2) Finally, we investigated whether delayed administration of Np75-4A22 was able to affect engraftment and growth of metastatic tumors in the lung. To this end, drug treatment (orally at 200 mg/kg) was initiated 3 weeks after intravenous injection of A875-NT or A875-shp75 cells in female SCID mice and continued for additionally 4 weekly cycles (5 days on/2 days off) as above (Fig. 8E). Metastatic spread to the lungs was monitored weekly by bioluminescent imaging of luciferase-expressing melanoma cells. […] We conclude that Np75-4A22 can be efficacious at reducing the spread and seeding of melanoma cells in the lung when administered either before or after cell implantation.
(§3) Eight-week-old female SCID mice (Charles River Laboratories, Shrewsbury, MA, USA) were housed in groups of three to five and maintained on a 12-h light/dark schedule with a temperature of 22 °C ± 1 °C and a relative humidity of 50% ± 5%. Food and water were available ad libitum. This research study was reviewed and approved by the University of Calgary Animal Care Committee (AC22-0054) and McGill University (AUP-JGH-8269) and adheres to established ethical principles and guidelines. A875-GFPLuc (A875-NT) or A875-GFPLuc shp75 (A875-shp75) cells harvested using Puck’s EDTA were resuspended in PBS and injected intravenously into SCID mice (5 × 10^5 cells/200 μl per mouse). Np75-4A22 was dissolved in 0.5% sodium carboxymethyl cellulose (NaCMC) in reverse osmosis H2O and administered by oral gavage at 200 mg/kg/day starting one day prior to intravenous (tail vein) injection of tumor cells and continued for 3 1-week cycles (cycle: 5 days on drug, 2 days off drug). Tumor spread to the lung was monitored weekly by luciferase activity using the Xenogen IVIS-200 Optical in vivo luciferase imaging system as described previously (Lun et al, [2016]) and by immunohistochemistry (IHC) at designated time points. IHC was performed after formalin fixation, paraffin embedding and sectioning of the lungs, using a human-specific mouse polyclonal nucleolin antibody (1:500 dilution) and detected using Dako liquid DAB+ Substrate Chromogen System (Dako: k3468, California, USA) followed by a hematoxylin counterstain (Sigma, Oakville, ON, Canada). Sections were mounted and imaged on an Olympus phase contrast microscope (Olympus Life Science, Tokyo, Japan). For immunofluorescence, sections were stained with anti-human nucleolin and anti-human p75NTR antibodies (1:1000 dilution), subsequently detected with 1:200 dilutions of Alexa Fluor™ 488 Goat anti-Mouse IgG (H + L) Highly Cross-Adsorbed Secondary Antibody and Alexa Fluor™ 568 Goat anti-Rabbit IgG (H + L) Cross-Adsorbed Secondary Antibody. Sections were further stained with DAPI to detect all nuclei. Between each treatment, TBS Automation Wash Buffer (Biocare Medical TWB945M) was employed. Images were taken with LSM800 confocal microscope and ZEN system.

[6] = test system: A875-shp75 melanoma xenograft; test: Melanoma lung invasion assay, A875-shp75, delayed treatment 3 weeks after cell injection; format: in vivo, SCID mice; conditions: group average
Method: as §2, §3

[7] = molecular target: T1, p75^NTR TMD (Homo sapiens, UniProt P08138); test: AraTM assay, wild-type p75NTR TMD (GFP/OD630); format: cell-based; conditions: structure-activity comparison
T1 sequence (P08138 250-275 limits assumed): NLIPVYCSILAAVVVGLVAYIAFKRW

CC(C)[C@H](NC(=O)c1ccc2ccccc2n1)C(=O)N[C@@H](CC(=O)O)C(=O)COc1c(F)cccc1F [Q-VD-pOH, reference compound] was tested, and the “block of Div17E5-induced apoptosis (cleaved PARP)” value [1] was “could be blocked”, the “Fold change (invading cells), n1-n3” value ([2]; With NGF) was 2.27 Fold and 1.89 Fold and 2.17 Fold and the “Fold change (invading cells), Mean” value ([2]; With NGF) was 2.11 Fold. The “Fold change (invading cells), n1-n3” value ([2]; without NGF) was 1.22 Fold and 1.02 Fold and 1.42 Fold, the “Fold change (invading cells), Mean” value ([2]; without NGF) was 1.22 Fold and the “Wound area, n1-n3” value ([3]; 0 hours) was 0.942 Fold and 1.051 Fold and 1.006 Fold. For the same molecule, the “Wound area, Mean” value ([3]; 0 hours) was 1.000 Fold, the “Wound area, n1-n3” value ([3]; 3 hours) was 0.980 Fold and 1.009 Fold and 0.979 Fold and the “Wound area, Mean” value ([3]; 3 hours) was 0.989 Fold. The “Wound area, n1-n3” value ([3]; 6 hours) was 0.990 Fold and 1.014 Fold and 0.952 Fold, the “Wound area, Mean” value ([3]; 6 hours) was 0.985 Fold and the “Wound area, n1-n3” value ([3]; 9 hours) was 0.935 Fold and 0.937 Fold and 0.886 Fold. The “Wound area, Mean” value ([3]; 9 hours) was 0.919 Fold, the “Wound area, n1-n3” value ([3]; 12 hours) was 0.939 Fold and 0.913 Fold and 0.875 Fold and the “Wound area, Mean” value ([3]; 12 hours) was 0.909 Fold. For the same molecule, the “Wound area, n1-n3” value ([3]; 15 hours) was 0.891 Fold and 0.870 Fold and 0.844 Fold, the “Wound area, Mean” value ([3]; 15 hours) was 0.869 Fold and the “Wound area, n1-n3” value ([3]; 18 hours) was 0.856 Fold and 0.835 Fold and 0.800 Fold. The “Wound area, Mean” value ([3]; 18 hours) was 0.830 Fold, the “Wound area, n1-n3” value ([3]; 21 hours) was 0.849 Fold and 0.778 Fold and 0.767 Fold and the “Wound area, Mean” value ([3]; 21 hours) was 0.798 Fold. For the same molecule, the “Wound area, n1-n3” value ([3]; 24 hours) was 0.815 Fold and 0.772 Fold and 0.761 Fold, the “Wound area, Mean” value ([3]; 24 hours) was 0.783 Fold and the “rescue of Div17E5 effect on cell motility by caspase inhibitor” value [4] was “could not be rescued”. For the same molecule, the “Wound area, Mean” value ([4]; 0 hours) was 1.000 Fold, the “Wound area, n1-n3” value ([4]; 3 hours) was 0.912 Fold and 1.045 Fold and 0.955 Fold and the “Wound area, Mean” value ([4]; 3 hours) was 0.971 Fold. For the same molecule, the “Wound area, n1-n3” value ([4]; 6 hours) was 0.873 Fold and 1.010 Fold and 0.935 Fold, the “Wound area, Mean” value ([4]; 6 hours) was 0.939 Fold and the “Wound area, n1-n3” value ([4]; 9 hours) was 0.814 Fold and 0.952 Fold and 0.859 Fold. For the same molecule, the “Wound area, Mean” value ([4]; 9 hours) was 0.875 Fold, the “Wound area, n1-n3” value ([4]; 12 hours) was 0.792 Fold and 0.920 Fold and 0.820 Fold and the “Wound area, Mean” value ([4]; 12 hours) was 0.844 Fold. For the same molecule, the “Wound area, n1-n3” value ([4]; 15 hours) was 0.758 Fold and 0.880 Fold and 0.797 Fold, the “Wound area, Mean” value ([4]; 15 hours) was 0.811 Fold and the “Wound area, n1-n3” value ([4]; 18 hours) was 0.732 Fold and 0.836 Fold and 0.772 Fold. The “Wound area, Mean” value ([4]; 18 hours) was 0.780 Fold, the “Wound area, n1-n3” value ([4]; 21 hours) was 0.724 Fold and 0.832 Fold and 0.756 Fold and the “Wound area, Mean” value ([4]; 21 hours) was 0.771 Fold. For the same molecule, the “Wound area, n1-n3” value ([4]; 24 hours) was 0.707 Fold and 0.800 Fold and 0.730 Fold and the “Wound area, Mean” value ([4]; 24 hours) was 0.746 Fold.

In the case of Cc1cccc(-c2cncc(Nc3ccc(Br)c(Cl)c3Cl)n2)c1C [4A-22], the “Average Photons/second/week, wk2” value ([5]; wk2) is reported as 77712.5 Photons/second, the “Average Photons/second/week, wk3” value ([5]; wk3) is reported as 189000 Photons/second and the “Average Photons/second/week, wk4” value ([5]; wk4) is reported as 170125 Photons/second. The “Average Photons/second/week, wk5” value ([5]; wk5) was 304375 Photons/second, the “Average Photons/second/week, wk6” value ([5]; wk6) was 845350 Photons/second and the “Average Photons/second/week, wk7” value ([5]; wk7) was 3166750 Photons/second. The “Average Photons/second/week, wk2” value ([6]; wk2) was 9.88E+04 Photons/second, the “Average Photons/second/week, wk3” value ([6]; wk3) was 1.46E+05 Photons/second and the “Average Photons/second/week, wk4” value ([6]; wk4) was 1.10E+05 Photons/second. The “Average Photons/second/week, wk5” value ([6]; wk5) was 2.77E+05 Photons/second, the “Average Photons/second/week, wk6” value ([6]; wk6) was 4.60E+05 Photons/second and the “Average Photons/second/week, wk7” value ([6]; wk7) was 1.10E+06 Photons/second.

With O=C(Nc1ccc([N+](=O)[O-])cc1)c1cncc(-c2cccc(OC3CCCC3)c2)n1 [Np75-3A51] the “activity in the AraTM assay” value [7] was “activity was lost”.

With COc1ccc(-c2cncc(Nc3ccc(Br)c(Cl)c3)n2)cc1 [Np75-3B03] the “activity in the AraTM assay” value [7] was “best compound in this series; also recorded: less potent than MS_18”.

In the case of Cc1cccc(-c2cncc(Nc3ccc([N+](=O)[O-])cc3)n2)c1 [Np75-3A20], the “activity in the AraTM assay” value [7] is reported as “Np75-3A21 better than -3A19 and -3A20”.
